Source: patent US6946076B2, “Removal of phosphate from water” (Dudley Mills Pty Ltd., priority 2001, dated 2005)

Conditions: made by mixing lanthanum chloride, citric acid and sodium hydroxide solutions

lanthanum hydroxy-citrate
content of clear stable solutions: up to 200 g/l
